The test system of this test is T. cruzi-infected H9C2 cardiomyocytes, high-content imaging. In words: anti-T. cruzi activity in infected cardiomyocytes – imaging, H9C2 host cardiomyocytes, host toxicity (AID 1159565).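 Note: infected cells incubated 72 h after plating.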
The mark [1] stands for this setting: measured here: H9C2 host cell toxicity.
The mark [2] stands for this setting: measured here: amastigotes per cell.

Broadly, the IC50 is the concentration that inhibits the measured activity by half.

On to `O=C(CCCNC(=O)c1ccc(Cl)cc1)Nc1nc(-c2ccccn2)cs1`, for which the half-inhibitory concentration (IC50) was 25 µM. This compound also had a half-inhibitory concentration (IC50) under setting [1] of 25 µM. Under setting [2], this compound came in with an IC50 of 10 µM.

Turning to `CNc1cc(Cn2c(C(=O)c3cc(C)cc(Cl)c3)c(C(C)C)c(=O)[nH]c2=O)ccn1`, the half-inhibitory concentration (IC50) is 0.02 µM. Besides, the IC50 under setting [1] is greater than 50 µM. The compound further returned an IC50 under setting [2] of 0.02 µM.

In the case of `COCc1cnc2c(c1SCc1c(F)cccc1Cl)c(=O)n(C)c(=O)n2C`, the IC50 was 4 µM. Under setting [1], this compound had an IC50 greater than 50 µM. The same compound yielded an IC50 under setting [2] of 2.5 µM.

With `Cc1ccc(NC(=O)c2ccc([N+](=O)[O-])s2)cc1S(=O)(=O)N1CCOCC1`, the IC50 was 0.4 µM. The IC50 under setting [1] was found to be 5 µM. This compound had an IC50 under setting [2] of 0.25 µM.

Consider `CCC(=O)N1N=C(c2ccc3c(c2)CCCC3)Sc2c1ncn2C(=O)CC`, for which the IC50 was 20 µM. In addition, the IC50 under setting [1] was greater than 50 µM. In addition, the IC50 under setting [2] was found to be 13 µM.

With `Cn1c(CN2CCN(c3ncc(C(F)(F)F)cc3Cl)CC2)nc2ccncc21`, the IC50 is 1 µM. Under setting [1], this compound registered an IC50 greater than 50 µM. In addition, the IC50 under setting [2] worked out at 1 µM.

Turning to `O=C(NCCc1csc(-c2cccc(F)c2)n1)c1ccco1`, the IC50 is 1.6 µM. Under setting [1], the IC50 is 10 µM. The compound further returned an IC50 under setting [2] of 1.3 µM.

Regarding `Clc1ccc(OCCN2CCCCC2c2cccnc2)c(Cl)c1` (centres undefined), the IC50 is 0.2 µM. The compound also came in with a 50% inhibitory concentration (IC50) under setting [1] greater than 50 µM. This compound also showed an IC50 under setting [2] of 0.16 µM.

In the case of `CS(=O)(=O)c1ccc(Nc2nccc(Nc3n[nH]c4ccc(F)cc34)n2)c(F)c1`, the IC50 is 32 µM. The compound further registered an IC50 under setting [1] of 16 µM. Under setting [2], this compound registered an IC50 of 4 µM.

In the case of `CC1=NN(C(=O)CCn2cnc([N+](=O)[O-])n2)C(O)(C(F)(F)F)C1` (centres undefined), the IC50 was 6.3 µM. The IC50 under setting [1] is greater than 50 µM. In addition, under setting [2], the IC50 was determined as 1.3 µM.

Regarding `O=C(c1cccc(Cl)c1Cl)N1CCn2c1nc(-c1ccncc1)cc2=O`, the IC50 is 0.32 µM. The compound also gave an IC50 under setting [1] greater than 50 µM. The IC50 under setting [2] is 0.32 µM.

As to `COc1ccc(C(C)N(C)c2ncc3c(N)nc(N)nc3n2)cc1F` (centres undefined), the IC50 was 0.2 µM. The IC50 under setting [1] came out at 25 µM. The same compound had an IC50 under setting [2] of 0.063 µM.

Take `NCc1csc(Nc2cc(Oc3ccccc3)ncn2)n1`: the half-maximal inhibitory concentration (IC50) is 25 µM. This compound had a concentration for half-maximal inhibition (IC50) under setting [1] greater than 50 µM. The IC50 under setting [2] stood at 32 µM.

On to `O=C(NCC(c1cccs1)N1CCOCC1)c1ccc([N+](=O)[O-])o1` (centres undefined), for which the 50% inhibitory concentration (IC50) was 16 µM. This compound showed an IC50 under setting [1] of 5 µM. Under setting [2], the IC50 stood at 16 µM.

Take `CCS(=O)(=O)c1cccc(C(=O)Nc2nc(-c3ccccn3)cs2)c1`: the IC50 is 2.5 µM. For the same compound, the IC50 under setting [1] is 4 µM. Also, under setting [2], the concentration for half-maximal inhibition (IC50) stood at 1.6 µM.

In the case of `CCOc1ccc2nc(NC(=O)c3ccc([N+](=O)[O-])s3)sc2c1`, the IC50 was 1.3 µM. Besides, the concentration for half-maximal inhibition (IC50) under setting [1] stood at 10 µM. The compound further returned an IC50 under setting [2] of 1 µM.

As to `Cc1cnc(Nc2cc(Cc3ccccc3)nc(NC3CCC(O)CC3)n2)s1` (centres undefined), the IC50 was 0.13 µM. Under setting [1], this compound returned an IC50 of 0.032 µM. In addition, the IC50 under setting [2] was determined as 0.05 µM.

In the case of `CC(CCc1ccccc1)NC(=O)CN(Cc1ccccn1)Cc1ccccn1` (centres undefined), the IC50 is 10 µM. Besides, the half-inhibitory concentration (IC50) under setting [1] is greater than 79 µM. Moreover, under setting [2], the IC50 was 3.2 µM.

As to `N#Cc1cc(-c2ccnc(Nc3cccc(CN4CCOCC4)c3)n2)ccc1NCCN`, the half-inhibitory concentration (IC50) is 32 µM. Under setting [1], this compound registered an IC50 of 7.9 µM. Under setting [2], this compound registered an IC50 of 16 µM.

Turning to `CN(C)Cc1ccc(-c2ccc(S(=O)(=O)NCC3CCCO3)c(F)c2)cc1` (centres undefined), the IC50 is 5 µM. Besides, the IC50 under setting [1] was determined as 63 µM. Moreover, the IC50 under setting [2] turned out to be 2 µM.

Turning to `CC(C)(C)C(=O)NCCc1csc(-c2ccc(F)cc2)n1`, the IC50 was 3.2 µM. For the same compound, under setting [1], the IC50 is greater than 50 µM. Under setting [2], the IC50 worked out at 2.5 µM.

As to `CN(C)Cc1ccc(N2CCC(NS(=O)(=O)c3ccc(Cl)cc3)CC2)cc1`, the IC50 was 0.32 µM. Also, the 50% inhibitory concentration (IC50) under setting [1] turned out to be 13 µM. Moreover, under setting [2], the half-maximal inhibitory concentration (IC50) was 0.25 µM.

For `O=C(Nc1ccc(C(=O)N2CCCC2c2ccc3c(c2)OCCCO3)cc1)c1ccco1` (centres undefined), the IC50 is 1 µM. Moreover, the half-inhibitory concentration (IC50) under setting [1] was greater than 50 µM. Moreover, under setting [2], the IC50 worked out at 0.63 µM.

Turning to `O=C(NCc1ccncc1)c1ccccc1N1CCCN(C(=O)Cc2ccc(F)c(F)c2)CC1`, the concentration for half-maximal inhibition (IC50) was 0.079 µM. The same compound registered an IC50 under setting [1] greater than 50 µM. Moreover, the half-maximal inhibitory concentration (IC50) under setting [2] turned out to be 0.079 µM.

On to `O=S(=O)(c1cccc(CSc2nnc(-c3ccc4c(c3)OCO4)o2)c1)N1CCOCC1`, for which the IC50 is 0.1 µM. Also, the IC50 under setting [1] was found to be 25 µM. Further, under setting [2], the concentration for half-maximal inhibition (IC50) came out at 0.04 µM.

Take `CCc1cccc(CC)c1-n1c(SCC(=O)NC(=O)NCc2ccco2)nnc1-c1cccnc1`: the IC50 was 13 µM. This compound displayed an IC50 under setting [1] greater than 50 µM. The compound further registered a 50% inhibitory concentration (IC50) under setting [2] of 7.9 µM.

For `Cn1nc([N+](=O)[O-])nc1N1CCCCC1`, the IC50 was 13 µM. The concentration for half-maximal inhibition (IC50) under setting [1] was greater than 50 µM. The IC50 under setting [2] was found to be 1 µM.

With `CC(=Cc1ccccc1)CN1CCC(=O)N(Cc2cccnc2)CC1`, the IC50 was 0.5 µM. For the same compound, under setting [1], the IC50 is greater than 50 µM. This compound also showed an IC50 under setting [2] of 0.5 µM.

Source of the values: PubChem BioAssay AID1159565 (GlaxoSmithKline (GSK), 2015).
